One assay concerns the target T1, POSH (Homo sapiens, UniProt Q7Z6J0).
T1 construct: GST-POSH lot NB81/p.118 3.6 mg/ml; fused on or other part: GST tag, used for detection with anti-GST XL665
T1 sequence (Q7Z6J0 1-269 limits assumed): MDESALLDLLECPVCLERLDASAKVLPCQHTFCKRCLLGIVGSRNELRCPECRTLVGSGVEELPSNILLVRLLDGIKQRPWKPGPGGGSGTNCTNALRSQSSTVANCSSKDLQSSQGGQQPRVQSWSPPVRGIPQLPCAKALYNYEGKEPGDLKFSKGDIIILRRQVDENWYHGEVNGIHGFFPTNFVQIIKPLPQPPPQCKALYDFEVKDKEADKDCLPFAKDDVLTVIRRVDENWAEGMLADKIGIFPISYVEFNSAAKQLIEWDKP
The experiment in a line: IC50 assay procedure: GST-POSH auto-ubiquitination, homogeneous time-resolved fluorescence (Ub-cryptate / anti-GST XL665). Format: biochemical. The following applies: ubiquitin ligase activity of POSH; GST-POSH 33 nM, 30 min preincubation. In outline:
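GST-POSH (33 nM) preincubated 30 min at RT with compounds (DMSO dilution series), then added to E1/E2/Eu-cryptate-ubiquitin enzyme mix for 30 min at 37 °C. Stopped with EDTA, anti-GST XL665 added 45 min at RT; HTRF signal of POSH auto-ubiquitination read, triplicates, IC50 from concentration series.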

In another assay the target is Hmdm2 (Homo sapiens, UniProt Q00987). The assay can be described thus: Selectivity (% A in 1 μM), ubiquitin ligase activity of Hmdm2. It is filed as biochemical. The following applies: read-out: Selectivity (% A* in 1 μM) Hmdm2.

Read-outs that look alike come from different tables or passages of the source.

What is called IC50 is the concentration needed to halve the response being measured. High values mean a need for much substance, low ones inhibition by little substance.

Sequence of Hmdm2 (Q00987 whole entry): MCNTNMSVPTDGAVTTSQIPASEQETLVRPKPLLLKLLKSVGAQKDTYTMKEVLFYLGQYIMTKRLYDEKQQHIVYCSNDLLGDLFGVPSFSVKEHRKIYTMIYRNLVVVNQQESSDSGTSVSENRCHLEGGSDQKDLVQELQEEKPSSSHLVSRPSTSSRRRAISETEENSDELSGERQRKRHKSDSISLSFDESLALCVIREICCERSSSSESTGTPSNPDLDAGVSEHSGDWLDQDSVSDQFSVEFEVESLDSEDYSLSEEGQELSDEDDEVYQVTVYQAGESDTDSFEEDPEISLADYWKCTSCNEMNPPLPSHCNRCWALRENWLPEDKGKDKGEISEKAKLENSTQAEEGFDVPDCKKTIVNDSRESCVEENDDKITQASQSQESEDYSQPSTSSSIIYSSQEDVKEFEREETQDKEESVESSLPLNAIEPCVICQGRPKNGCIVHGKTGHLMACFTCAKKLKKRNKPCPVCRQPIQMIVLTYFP

Compound `COc1ccc(/C=C/C(=O)C2C(=O)CCC2=O)cc1OC` [Compound 113] gave an IC50 on POSH of 400 nM. Also, the remaining activity at 1 µM on Hmdm2 (% activity at 1 μM compound, control is related to 100% activity, HTS protocol) is 101%.

For the compound `COc1ccc(NC(=O)c2cc3cccc(N)c3cc2O)cc1` [Compound 114], the IC50 at POSH turned out to be 300 nM. Moreover, at Hmdm2, the remaining activity at 1 µM turned out to be 85%.

In the case of `CN1C(=O)/C(=C\c2ccc(-c3cccc([N+](=O)[O-])c3)o2)SC1=S` [Compound 115], the IC50 against POSH was 600 nM. Besides, at Hmdm2, the remaining activity at 1 µM is 108%.

The values above are taken from patent publication US7659277B2, “Ubiquitin ligase inhibitors and methods related thereto” (Proteologies, Ltd., priority 2003, dated 2010).
